Laboratory results as given in the NIST ThermoML archive (doi:10.1021/je020163y).
Numbers after ± are expanded uncertainties.

Details: Crystal; visual observation

| Compound | Normal melting temperature [°C] |
| --- | --- |
| Cc1cc(O)c2c(=O)c3ccccc3sc2c1O [1,4-dihydroxy-3-methylthioxanthone] | 240 ± 4 |
| Cc1cc(O)c2c(=O)c3ccccc3sc2c1 [1-hydroxy3-methylthioxanthone] | 149 ± 1 |
| O=c1c2ccccc2sc2cccc(O)c12 [1-hydroxythioxanthone] | 119 ± 1 |
| O=c1c2ccccc2sc2ccccc12 [thioxanthone] | 209 ± 2 |
